Legend:
hPPARα = biological target: T1, hPPARα (Homo sapiens, UniProt Q07869); assay: Determination of hPPARα activity (GAL4 fusion luciferase reporter, HEK-293 cells); type: cell-based; settings: Concentration 50 μM
T1 construct: expressed in transfected cells; host or cells: HEK-293
T1 sequence (Q07869 239-466 limits assumed): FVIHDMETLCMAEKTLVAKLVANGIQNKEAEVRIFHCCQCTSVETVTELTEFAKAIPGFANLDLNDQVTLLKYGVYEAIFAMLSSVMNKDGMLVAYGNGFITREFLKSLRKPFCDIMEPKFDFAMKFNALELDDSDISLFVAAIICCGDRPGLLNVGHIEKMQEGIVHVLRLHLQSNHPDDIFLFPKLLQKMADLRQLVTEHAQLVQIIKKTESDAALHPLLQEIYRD
Method: Ligand binding domain of hPPARα was fused to DNA binding domain of Yeast transcription factor GAL4 in eucaryotic expression vector. Using superfect (Qiagen, Germany) as transfecting reagent HEK-293 cells were transfected with this plasmid and a reporter plasmid harboring the luciferase gene driven by a GALA specific promoter. Compound was added at different concentrations after 42 hrs of transfection and incubated overnight. Luciferase activity as a function of compound binding/activation capacity of PPARα was measured using Packard Luclite kit (Packard, USA) in Top Count (Ivan Sadowski, Brendan Bell, Peter Broag and Melvyn Hollis. Gene. 1992. 118: 137-141; Superfect Transfection Reagent Handbook. February, 1997. Qiagen, Germany).

hPPARγ1 = biological target: T2, hPPARγ1 (Homo sapiens, UniProt P37231); assay: Determination of hPPARγ activity (GAL4 fusion luciferase reporter, HEK-293 cells); type: cell-based; settings: Concentration 1 μM
T2 construct: expressed in transfected cells; host or cells: HEK-293
T2 sequence (P37231 238-503 limits assumed): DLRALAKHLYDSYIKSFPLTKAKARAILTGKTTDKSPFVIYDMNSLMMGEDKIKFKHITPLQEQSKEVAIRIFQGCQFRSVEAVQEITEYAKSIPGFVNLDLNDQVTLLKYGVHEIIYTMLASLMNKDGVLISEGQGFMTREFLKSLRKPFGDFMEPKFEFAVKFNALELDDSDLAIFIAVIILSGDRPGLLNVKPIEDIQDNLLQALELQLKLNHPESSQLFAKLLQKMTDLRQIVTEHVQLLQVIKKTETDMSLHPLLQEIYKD
Method: Ligand binding domain of hPPARγ1 was fused to DNA binding domain of Yeast transcription factor GAL4 in eucaryotic expression vector. Using lipofectamine (Gibco BRL, USA) as transfecting reagent HEK-293 cells were transfected with this plasmid and a reporter plasmid harboring the luciferase gene driven by a GAL4 specific promoter. Compound was added at 1 μM concentration after 48 hrs of transfection and incubated overnight. Luciferase activity as a function of drug binding/activation capacity of PPARγ was measured using Packard Luclite kit (Packard, USA) in Packard Top Count (Ivan Sadowski, Brendan Bell, Peter Broag and Melvyn Hollis. Gene. 1992. 118:137-141; Guide to Eukaryotic Transfections with Cationic Lipid Reagents. Life Technologies, GIBCO BRL, USA).

[1] = system: hypercholesterolemic Sprague Dawley rats; assay: Cholesterol lowering activity in hypercholesterolemic rat models; type: in vivo; settings: for LDL↓ (%): LDL calculated; for VLDL↓ (%): VLDL calculated
Method: Male Sprague Dawley rats (NIN stock) were bred in DRF animal house. Animals were maintained under 12 hour light and dark cycle at 25±1° C. Rats of 180-200 gram body weight range were used for the experiment. Animals were made hypercholesterolemic by feeding 2% cholesterol and 1% sodium cholate mixed with standard laboratory chow [National Institute of Nutrition (NIN), Hyderabad, India] for 6 days. Throughout the experimental period the animals were maintained on the same diet (Petit, D., Bonnefis, M. T., Rey, C and Infante, R. Effects of ciprofibrate on liver lipids and lipoprotein synthesis in normo- and hyperlipidemic rats. Atherosclerosis. 1988. 74: 215-225).
The test compounds were administered orally at a dose 0.1 to 30 mg/kg/day for 3 days. Control group was treated with vehicle alone (0.25% Carboxymethylcellulose; dose 10 ml/kg).
The blood samples were collected in fed state 1 hour after drug administration on 0 and 3 day of compound treatment. The blood was collected from the retro-orbital sinus through heparinised capillary in EDTA containing tubes. After centrifugation, plasma sample was separated for total cholesterol, HDL and triglyceride estimations. Measurement of plasma triglyceride, total cholesterol and HDL were done using commercial kits (Dr. Reddy's Laboratory, Diagnostic Division, India). LDL and VLDL cholesterol were calculated from the data obtained for total cholesterol, HDL and triglyceride. The reduction of various parameters examined are calculated according to the formula.
(§1) 1. Percent reduction in Blood sugar/triglycerides/total cholesterol were calculated according to the formula: [formula]
2. LDL and VLDL cholesterol levels were calculated according to the formula: [formula]
VLDL cholesterol in mg/dl=[Total cholesterol−HDL cholesterol−LDL cholesterol] mg/dl

C57BL/KsJ-db/db mice = assay: Efficacy in genetic models: blood sugar and triglyceride lowering in db/db mice; type: in vivo; settings: 3 mg/kg oral gavage daily for 6 days
Source text: Mutation in colonies of laboratory animals and different sensitivities to dietary regimens have made the development of animal models with non-insulin dependent diabetes and hyperlipidemia associated with obesity and insulin resistance possible. Genetic models such as db/db and ob/ob (Diabetes, (1982) 31(1):1-6) mice and zucker fa/fa rats have been developed by the various laboratories for understanding the pathophysiology of disease and testing the efficacy of new antidiabetic compounds (Diabetes, (1983) 32:830-838; Annu. Rep. Sankyo Res. Lab. (1994). 46:1-57). The homozygous animals, C57 BL/KsJ-db/db mice developed by Jackson Laboratory, US, are obese, hyperglycemic, hyperinsulinemic and insulin resistant (J. Clin. Invest., (1990) 85:962-967), whereas heterozygous are lean and normoglycemic. In db/db model, mouse progressively develops insulinopenia with age, a feature commonly observed in late stages of human type II diabetes when blood sugar levels are insufficiently controlled. The state of pancreas and its course vary according to the models. Since this model resembles that of type II diabetes mellitus, the compounds of the present invention were tested for blood sugar and triglycerides lowering activities.
Male C57BL/KsJ-db/db mice of 8 to 14 weeks age, having body weight range of 35 to 60 grams, bred at Dr. Reddy's Research Foundation (DRF) animal house, were used in the experiment. The mice were provided with standard feed (National Institute of Nutrition (NIN), Hyderabad, India) and acidified water, ad libitum. The animals having more than 350 mg/dl blood sugar were used for testing. The number of animals in each group was 4.
Test compounds were suspended on 0.25% carboxymethyl cellulose and administered to test group at a dose of 0.001 mg to 30 mg/kg through oral gavage daily for 6 days. The control group received vehicle (dose 10 ml/kg). On 6th day the blood samples were collected one hour after administration of test compounds/vehicle for assessing the biological activity.
The random blood sugar and triglyceride levels were measured by collecting blood (100 μl) through orbital sinus, using heparinised capillary in tubes containing EDTA which was centrifuged to obtain plasma. The plasma glucose and triglyceride levels were measured spectrometrically, by glucose oxidase and glycerol-3-PO4 oxidase/peroxidase enzyme (Dr. Reddy's Lab. Diagnostic Division Kits, Hyderabad, India) methods respectively.
The blood sugar and triglycerides lowering activities of the test compound was calculated according to the formula described below.
as §1

[2] = system: Swiss albino mice and Guinea pigs; assay: Plasma triglyceride and total cholesterol lowering activity in Swiss albino mice and Guinea pigs; type: in vivo; settings: 3 mg/kg orally for 6 days; species of the table not stated (Swiss albino mice or Guinea pigs)
Method: Male Swiss albino mice (SAM) and male Guinea pigs were obtained from NIN and housed in DRF animal house. All these animals were maintained under 12 hour light and dark cycle at 25±1° C. Animals were given standard laboratory chow (NIN, Hyderabad, India) and water, ad libitum. SAM of 20-25 g body weight range and Guinea pigs of 500-700 g body weight range were used (Oliver, P., Plancke, M. O., Marzin, D., Clavey, V., Sauzieres, J and Fruchart, J. C. Effects of fenofibrate, gemfibrozil and nicotinic acid on plasma lipoprotein levels in normal and hyperlipidemic mice. Atherosclerosis. 1988. 70:107-114).
The test compounds were administered orally to Swiss albino mice at 0.3 to 30 mg/kg/day dose for 6 days. Control mice were treated with vehicle (0.25% Carboxymethylcellulose; dose 10 ml/kg). The test compounds were administered orally to Guinea pigs at 0.3 to 30 mg/kg/day dose for 6 days. Control animals were treated with vehicle (0.25% Carboxymethylcellulose; dose 5 ml/kg).
The blood samples were collected in fed state 1 hour after drug administration on 0 and 6 day of treatment. The blood was collected from the retro-orbital sinus through heparinised capillary in EDTA containing tubes. After centrifugation, plasma sample was separated for triglyceride and total cholesterol (Wieland, O. Methods of Enzymatic analysis. Bergermeyer, H. O., Ed., 1963. 211-214; Trinder, P. Ann. Clin. Biochem. 1969. 6:24-27). Measurement of plasma triglyceride, total cholesterol and HDL were done using commercial kits (Dr. Reddy's Diagnostic Division, Hyderabad, India).
as §1

In the case of CCOC(Cc1ccc(OCCN2COc3ccccc3C2=O)cc1)C(=O)O (racemic) [Example 3, (±) 2-Ethoxy-3-[4-[2-[4-oxo-3,4-dihydro-1,3-benzoxazin-3-yl]ethoxy]phenyl]propanoic Acid], the PPARα (hPPARα) is reported as 7, the PPARγ (hPPARγ1) is reported as 11 and the “HDL↑ (%)” value ([1]; 0.3 mg/kg orally for 3 days) is reported as 110%. The “Total Cholesterol (%)↓” value ([1]; 0.3 mg/kg orally for 3 days) was 64%, the “Triglyceride (%)↓” value ([1]; 0.3 mg/kg orally for 3 days) was 62% and the “LDL↓ (%)” value ([1]; 0.3 mg/kg orally for 3 days) was 74%. For the same compound, the “VLDL↓ (%)” value ([1]; 0.3 mg/kg orally for 3 days) was 50%.

With CCOC(Cc1ccc(OCCN2COc3ccccc3C2=O)cc1)C(=O)[O-].[Na+] (racemic) [Example 4, (±)-Sodium 2-ethoxy-3-[4-[2-[4-oxo-3,4-dihydro-1,3-benzoxazin-3-yl]ethoxy]phenyl]propanoate] the “HDL↑ (%)” value ([1]; 3 mg/kg orally for 3 days) was 256%, the “Total Cholesterol (%)↓” value ([1]; 3 mg/kg orally for 3 days) was 64% and the “Triglyceride (%)↓” value ([1]; 3 mg/kg orally for 3 days) was 61%. The “LDL↓ (%)” value ([1]; 3 mg/kg orally for 3 days) was 76% and the “VLDL↓ (%)” value ([1]; 3 mg/kg orally for 3 days) was 67%.

In the case of CCOC(Cc1ccc(OCC2NC(=O)c3ccccc3O2)cc1)C(=O)O (racemic) [Example 14, (±)-2-Ethoxy-3-[4-[[4-oxo-3,4-dihydro 1,3-benzoxazin-2-yl]methoxy]phenyl]propanoic Acid], the “Reduction in Blood Glucose Level (%)” value (C57BL/KsJ-db/db mice) is reported as 55% and the “Triglyceride Lowering (%)” value (C57BL/KsJ-db/db mice) is reported as 46%.

In the case of CCOC(Cc1ccc(OCC2NC(=O)c3ccccc3N2)cc1)C(=O)O (racemic) [Example 16, (±)-2-Ethoxy-3-[4-[[4-oxo-1,2,3,4-tetrahydro-2-quinazolinyl]methoxy]phenyl]propanoic Acid], the “Reduction in Blood Glucose Level (%)” value (C57BL/KsJ-db/db mice) is reported as 18% and the “Triglyceride Lowering (%)” value (C57BL/KsJ-db/db mice) is reported as 13%.

With CCOC(Cc1ccc(OCC2NC(=O)c3cc(Cl)ccc3N2)cc1)C(=O)O (racemic) [Example 18, (±)-2-Ethoxy-3-[4-[[6-chloro-4-oxo-1,2,3,4-tetrahydro-2-quinazolinyl]methoxy]phenyl]propanoic Acid] the “Triglyceride (%)↓” value [2] was 63%.

In the case of CCOC(Cc1ccc(OCC2Nc3ccccc3C(=O)N2C)cc1)C(=O)OC (racemic) [Example 19, (±)-Methyl 2-ethoxy-3-[4-[[3-methyl-4-oxo-1,2,3,4-tetrahydro-2-quinazolinyl]methoxy]phenyl]propanoate], the “Reduction in Blood Glucose Level (%)” value (C57BL/KsJ-db/db mice) is reported as 31%, the “Triglyceride Lowering (%)” value (C57BL/KsJ-db/db mice) is reported as 62% and the “Triglyceride (%)↓” value [2] is reported as 51%.

In the case of CCOC(Cc1ccc(OCCN2COc3ccccc3C2=O)cc1)C(=O)NC(CO)c1ccccc1 (stereo not shown) [Example 7], the “Triglyceride (%)↓” value [2] is reported as 61%.

Compound CCOC(Cc1ccc(OCCN2COc3ccccc3C2=O)cc1)C(=O)NC(CO)c1ccccc1 [Example 7a, [2R, N(1S)] 2-Ethoxy-3-[4-[2-[4-oxo-3,4-dihydro-1,3-benzoxazin-3-yl]ethoxy]phenyl]-N-(2-hydroxy-1-phenylethyl)propanamide] has a melting point of 64 to 68 °C.

— patent US6664411B2, “Heterocyclic compounds and their use in medicine; process for their preparation and pharmaceutical compositions containing them” (Dr. Reddy's Laboratories Limited, priority 1997, dated 2003)
